Measurements published in patent US20230277504A1, “COMPOSITIONS AND METHODS COMPRISING CELECOXIB OR RELATED COMPOUNDS AND DEXTROMETHORPHAN” (ANTECIP BIOVENTURES II LLC, priority 2012, published 2023).
Where “and” joins values, the source holds several entries; their conditions need not be identical. Equal entries are not always repeated. Where two headings read alike, the source gives them in different places.

Tests used:
[1] = target: T1, dextromethorphan metabolism (demethylation; CYP2D6) in human liver microsomes (Homo sapiens, UniProt P10635); test: Inhibition of dextromethorphan metabolism in human liver microsomes; type: in vitro ADME
T1 construct: in the presence of dextromethorphan (2.5 μM) and human liver microsomes (0.5 mg/mL) at 37° C; from tissue; host or cells: human liver microsomes
Experimental: Inhibition of dextromethorphan metabolism was examined using human liver microsomes. […] In addition, the assay contained NADPH (2 mM), MgCl2 (3 mM), and potassium phosphate buffer (50 mM) at pH 7.4. The assay was initiated by adding the NADPH, and incubation was terminated after 10 minutes by addition of acetonitrile. The samples were centrifuged, and the metabolism of dextromethorphan was analyzed by LC/MS/MS. […] The same assay was carried out on a number of NSAIDs.

[2] = extensive metabolizers of dextromethorphan; 'believed to be'; cited from earlier work
pain = conditions: cited from earlier work

T1 sequence (P10635 whole entry): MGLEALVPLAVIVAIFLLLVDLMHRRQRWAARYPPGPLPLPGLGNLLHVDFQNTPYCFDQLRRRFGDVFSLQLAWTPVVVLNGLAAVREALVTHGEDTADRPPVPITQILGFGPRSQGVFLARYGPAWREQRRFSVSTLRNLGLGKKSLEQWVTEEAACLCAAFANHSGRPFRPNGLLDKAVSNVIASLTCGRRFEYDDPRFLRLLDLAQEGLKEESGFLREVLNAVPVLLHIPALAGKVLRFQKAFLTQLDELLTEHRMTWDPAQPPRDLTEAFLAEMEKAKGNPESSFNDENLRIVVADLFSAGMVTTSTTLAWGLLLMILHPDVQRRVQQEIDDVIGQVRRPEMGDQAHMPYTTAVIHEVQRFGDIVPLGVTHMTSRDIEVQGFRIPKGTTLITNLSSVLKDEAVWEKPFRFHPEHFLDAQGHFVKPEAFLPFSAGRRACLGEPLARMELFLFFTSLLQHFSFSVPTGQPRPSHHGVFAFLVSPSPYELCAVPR

**Q.** With Cc1ccc(-c2cc(C(F)(F)F)nn2-c2ccc(S(N)(=O)=O)cc2)cc1 [Celecoxib] as the compound, how does the IC50 [1] read?
**A.** 2.6 to 2.9 µM

**Q.** What about the “times as active at inhibiting the metabolism of dextromethorphan as the next best compound” value [1] of the same compound?
**A.** about five

**Q.** And the IC50 ([1]; IC50 (inhibition of dextromethorphan metabolism), human liver microsomes 0.5 mg/mL, dextromethorphan 2.5 μM, NADPH 2 mM, 37° C., pH 7.4, 10 minutes, LC/MS/MS)?
**A.** 2.6 µM and 2.9 µM

**Q.** What about the “times as active at inhibiting the metabolism of dextromethorphan as 6-methoxy-2-naphthyl acetic acid” value ([1]; human, 10 min, pH 7.4) of the same compound?
**A.** more than 500 times

**Q.** With CS(=O)(=O)c1ccc(C2=C(c3ccccc3)C(=O)OC2)cc1 [Rofecoxib] as the compound, how does the IC50 [1] read?
**A.** 44.5 µM

**Q.** With CC1=C(CC(=O)O)c2cc(F)ccc2/C1=C\c1ccc([S+](C)[O-])cc1 (stereo not shown) [Sulindac] as the compound, how does the IC50 [1] read?
**A.** > 36 µM

**Q.** Which IC50 [1] does the source give for Cc1onc(-c2ccccc2)c1-c1ccc(S(N)(=O)=O)cc1 [Valdecoxib] here?
**A.** 15.2 µM

**Q.** Which IC50 [1] does the source give for CC(C(=O)O)c1ccc(-c2ccccc2)c(F)c1 (stereo not shown) [Flurbiprofen] here?
**A.** > 320 µM

**Q.** Which clearance [2] does the source give for COc1ccc2c(c1)[C@]13CCCC[C@@H]1[C@H](C2)N(C)CC3 [dextromethorphan, Dextromethorphan] here?
**A.** about 110 L/min

**Q.** And the analgesic efficacy (pain; double-blind human studies in chronic and neuropathic pain, review of Weinbroum et al.)?
**A.** ineffective for the most part

**Q.** What about the “pain reduction versus placebo” value (pain; patients with diabetic neuropathy and postherpetic neuralgia, Sang et al.) of the same compound?
**A.** did not reduce pain significantly more than placebo

**Q.** What about the analgesic efficacy (pain; patients with facial neuralgias, Gilron et al.) of the same compound?
**A.** little or no analgesic efficacy

**Q.** With COc1ccc2cc(CC(=O)O)ccc2c1 [6-methoxy-2-naphthyl acetic acid] as the compound, how does the IC50 ([1]; human liver microsomes 0.5 mg/mL, dextromethorphan 2.5 μM, NADPH 2 mM, 37° C., pH 7.4, 10 minutes, LC/MS/MS, read-out: IC50 (inhibition of dextromethorphan metabolism)) read?
**A.** > 1760 µM
